# From ChEMBL document CHEMBL1201862, “PubChem BioAssay data set” (2004)
# Active and inactive are the calls of the source. *1 amine or outer side, *2 acyl side, *3 side chain or, on linkers, in order; H or OH if unused. Where a SMILES comes first, the peptide text is derived from it. [ ]: non-standard residue; d: D form. X2 = CCC[C@@H](N[*:1])[C@H](C)C(=O)O[C@H](C(=O)[*:2])[C@@H](C)CC; X1 = CC(N[*:1])C(=O)C(C)(C)C(=O)[*:2]; NMeY = CN[C@@H](Cc1ccc(O)cc1)C(=O)O; NMeL = CN[C@@H](CC(C)C)C(=O)O; NMeV = CN[C@H](C(=O)O)C(C)C; NMeA = CN[C@@H](C)C(=O)O
# Assays:
# Vero [1] = assay: cells; assay type: functional, cell-based; settings: Chlorocebus sabaeus
# Vero [2] = assay: cells; assay type: functional; settings: Chlorocebus sabaeus
# [3] = molecular target: T1, Short transient receptor potential channel 4 (Mus musculus, UniProt Q9QUQ5); assay: mouse TRPC4 channel inhibitors, dose response, cell-based, HEK293 TRPC4/mu-opioid, Fluo-4 calcium (AID 434942); assay type: functional;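 note: potency of inhibitors blocking the TRPC4 calcium response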
# T1 sequence (Q9QUQ5 whole entry): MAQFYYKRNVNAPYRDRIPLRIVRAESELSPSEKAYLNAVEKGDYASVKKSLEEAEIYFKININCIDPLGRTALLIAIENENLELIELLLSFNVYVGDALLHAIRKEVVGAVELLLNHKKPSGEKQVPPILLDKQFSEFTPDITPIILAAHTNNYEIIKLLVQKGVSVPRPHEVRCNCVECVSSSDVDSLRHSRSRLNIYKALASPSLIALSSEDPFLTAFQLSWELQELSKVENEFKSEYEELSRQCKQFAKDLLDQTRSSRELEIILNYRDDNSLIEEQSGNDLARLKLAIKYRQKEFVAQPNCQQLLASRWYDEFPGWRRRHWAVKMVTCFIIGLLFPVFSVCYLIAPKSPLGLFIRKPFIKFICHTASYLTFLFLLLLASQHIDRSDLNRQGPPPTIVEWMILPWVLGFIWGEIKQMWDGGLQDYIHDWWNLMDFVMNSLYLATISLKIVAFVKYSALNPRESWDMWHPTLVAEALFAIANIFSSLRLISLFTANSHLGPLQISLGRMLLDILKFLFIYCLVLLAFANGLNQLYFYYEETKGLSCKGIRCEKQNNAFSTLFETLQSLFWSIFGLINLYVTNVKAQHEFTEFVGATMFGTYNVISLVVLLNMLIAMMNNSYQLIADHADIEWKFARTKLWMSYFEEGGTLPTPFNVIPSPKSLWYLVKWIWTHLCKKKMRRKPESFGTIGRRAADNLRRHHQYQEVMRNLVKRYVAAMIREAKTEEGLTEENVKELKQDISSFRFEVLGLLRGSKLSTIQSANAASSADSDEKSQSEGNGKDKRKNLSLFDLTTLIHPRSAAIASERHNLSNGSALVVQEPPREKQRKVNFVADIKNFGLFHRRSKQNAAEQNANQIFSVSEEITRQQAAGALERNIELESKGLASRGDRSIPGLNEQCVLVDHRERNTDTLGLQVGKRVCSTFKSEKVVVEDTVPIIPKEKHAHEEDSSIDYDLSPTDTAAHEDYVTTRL
# BJ [4] = assay: cytotoxicity toward BJ-TERT fibroblasts, dose response, cell-based, RAS-independent, luminescence (AID 1933); assay type: functional; settings: Homo sapiens
# BJ [5] = assay: cells; assay type: functional, cell-based; settings: Homo sapiens
# [6] = microbe, parasite or virus in culture; assay type: functional; settings: Mycobacterium tuberculosis
# BJ [7] = assay: cytotoxicity toward BJ-TERT-LT-ST fibroblasts, dose response, cell-based, RAS-independent, luminescence (AID 1935); assay type: functional; settings: Homo sapiens;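 note: BJ fibroblasts immortalized with TERT plus LT and ST oncogenes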
# [8] = cytotoxicity toward DRD oncogenic fibroblasts, dose response, cell-based, non-viral oncogenic, luminescence (AID 1934); assay type: functional; settings: Homo sapiens
# [9] = cytotoxicity in HEK-293T cells, dose response, cytotoxicity control for TCR NF-kB inhibitor project, luminescence, T-cell screen hits (AID 489026); assay type: functional, cell-based;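 note: cells exposed to compound about 14 hours before the viability readout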
# [10] = molecular target: T2, Microphthalmia-associated transcription factor (Homo sapiens, UniProt O75030); assay: TRPM1 promoter luciferase signal decrease, dose response, MITF inhibitor project, cell-based, SK-MEL-5, cherry-picked, set 3 (AID 493073); assay type: functional
# T2 sequence (O75030 whole entry): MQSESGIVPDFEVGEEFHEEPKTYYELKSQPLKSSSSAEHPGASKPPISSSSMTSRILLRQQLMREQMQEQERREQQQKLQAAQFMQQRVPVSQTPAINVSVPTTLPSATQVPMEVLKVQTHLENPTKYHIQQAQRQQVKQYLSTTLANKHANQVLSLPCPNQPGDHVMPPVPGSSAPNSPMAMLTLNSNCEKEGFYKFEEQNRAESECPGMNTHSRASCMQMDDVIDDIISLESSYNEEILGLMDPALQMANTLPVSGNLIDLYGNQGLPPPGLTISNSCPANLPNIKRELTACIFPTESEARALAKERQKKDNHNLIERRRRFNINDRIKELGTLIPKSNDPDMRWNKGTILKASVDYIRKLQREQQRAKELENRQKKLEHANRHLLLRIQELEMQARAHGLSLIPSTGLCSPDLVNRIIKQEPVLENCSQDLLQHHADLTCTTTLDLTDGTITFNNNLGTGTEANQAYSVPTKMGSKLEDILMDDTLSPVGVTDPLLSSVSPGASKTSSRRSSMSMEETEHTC
# [11] = molecular target: T3, Replicative DNA helicase DnaB (Mycobacterium tuberculosis, UniProt P9WMR3); assay: DnaB intein splicing inhibitors, dose response, biochemical, cell-free fluorescence (AID 449749); assay type: functional
# T3 sequence (P9WMR3 whole entry): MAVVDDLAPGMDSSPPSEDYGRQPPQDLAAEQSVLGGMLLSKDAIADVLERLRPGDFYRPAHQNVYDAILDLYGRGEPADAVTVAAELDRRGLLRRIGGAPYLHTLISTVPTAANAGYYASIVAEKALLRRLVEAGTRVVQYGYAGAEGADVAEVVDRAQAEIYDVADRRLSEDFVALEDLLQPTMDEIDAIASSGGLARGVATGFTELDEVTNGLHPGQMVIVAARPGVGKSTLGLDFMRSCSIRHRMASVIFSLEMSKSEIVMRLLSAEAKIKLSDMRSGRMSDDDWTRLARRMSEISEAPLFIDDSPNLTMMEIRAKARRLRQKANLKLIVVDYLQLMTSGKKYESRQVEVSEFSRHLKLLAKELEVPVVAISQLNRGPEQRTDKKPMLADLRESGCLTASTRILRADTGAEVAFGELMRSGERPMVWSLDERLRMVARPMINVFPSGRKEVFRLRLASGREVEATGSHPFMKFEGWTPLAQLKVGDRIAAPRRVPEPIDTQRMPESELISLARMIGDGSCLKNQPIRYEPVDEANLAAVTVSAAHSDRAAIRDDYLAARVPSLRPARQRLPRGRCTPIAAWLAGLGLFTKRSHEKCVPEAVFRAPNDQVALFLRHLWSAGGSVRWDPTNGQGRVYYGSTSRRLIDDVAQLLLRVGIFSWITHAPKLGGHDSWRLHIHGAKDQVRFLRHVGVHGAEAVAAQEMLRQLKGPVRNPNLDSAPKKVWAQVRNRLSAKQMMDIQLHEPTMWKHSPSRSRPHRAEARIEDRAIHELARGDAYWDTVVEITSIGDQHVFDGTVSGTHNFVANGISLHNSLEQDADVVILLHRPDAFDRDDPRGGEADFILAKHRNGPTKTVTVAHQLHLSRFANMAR
# Protein RecA = molecular target: T4, Protein RecA (Mycobacterium tuberculosis, UniProt P9WHJ3); assay: Fluorescence Cell-Free Homogeneous Dose Retest to Identify Inhibitors of RecA-Intein Splicing Activity. [Related pubchem assays (depositor defined):AID2097, AID2223, AID489010, AID492950]; assay type: functional
# T4 sequence (P9WHJ3 whole entry): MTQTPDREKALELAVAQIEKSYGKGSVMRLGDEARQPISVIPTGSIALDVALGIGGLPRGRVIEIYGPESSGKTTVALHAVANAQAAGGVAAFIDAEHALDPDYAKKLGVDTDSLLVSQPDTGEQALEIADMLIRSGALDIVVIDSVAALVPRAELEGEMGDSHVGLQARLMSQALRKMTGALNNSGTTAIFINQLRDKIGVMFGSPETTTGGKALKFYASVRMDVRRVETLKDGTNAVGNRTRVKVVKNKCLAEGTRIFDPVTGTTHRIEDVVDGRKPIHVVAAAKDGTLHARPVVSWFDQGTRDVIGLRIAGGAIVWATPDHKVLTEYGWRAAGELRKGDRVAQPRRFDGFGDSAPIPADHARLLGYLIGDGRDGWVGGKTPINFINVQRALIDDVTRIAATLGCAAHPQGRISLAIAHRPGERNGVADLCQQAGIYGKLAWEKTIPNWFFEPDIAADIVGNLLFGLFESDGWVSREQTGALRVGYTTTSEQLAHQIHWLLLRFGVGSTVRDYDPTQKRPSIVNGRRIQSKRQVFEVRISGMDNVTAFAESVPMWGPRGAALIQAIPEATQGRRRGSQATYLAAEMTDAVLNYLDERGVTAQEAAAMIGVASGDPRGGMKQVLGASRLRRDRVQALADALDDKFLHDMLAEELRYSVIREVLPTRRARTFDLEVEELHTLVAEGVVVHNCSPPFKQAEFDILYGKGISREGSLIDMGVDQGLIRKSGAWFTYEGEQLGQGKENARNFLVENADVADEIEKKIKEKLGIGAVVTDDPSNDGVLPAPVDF
# [12] = molecular target: T1, Short transient receptor potential channel 4; assay: mouse TRPC4 channel activators, dose response, cell-based, HEK293 TRPC4/mu-opioid, Fluo-4 calcium (AID 434937); assay type: functional
# [13] = molecular target: T5, DNA repair protein RAD52 homolog (Homo sapiens, UniProt P43351); assay type: functional, biochemical
# T5 sequence (P43351 whole entry): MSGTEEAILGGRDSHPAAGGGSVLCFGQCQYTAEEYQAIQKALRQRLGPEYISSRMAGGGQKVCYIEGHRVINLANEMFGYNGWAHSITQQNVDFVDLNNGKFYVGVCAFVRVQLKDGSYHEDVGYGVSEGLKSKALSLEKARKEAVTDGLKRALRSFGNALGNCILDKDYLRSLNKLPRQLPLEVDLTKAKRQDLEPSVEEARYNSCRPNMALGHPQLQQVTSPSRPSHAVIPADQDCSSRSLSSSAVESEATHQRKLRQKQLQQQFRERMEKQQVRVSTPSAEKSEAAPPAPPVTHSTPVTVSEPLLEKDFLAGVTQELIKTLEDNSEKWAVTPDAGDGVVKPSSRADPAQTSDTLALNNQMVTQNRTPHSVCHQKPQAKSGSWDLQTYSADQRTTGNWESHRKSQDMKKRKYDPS
smiles,measurement,setting,value
Cc1cc(N2CCN(Cc3nc(-c4ccc(Cl)cc4)oc3C)CC2)cc(C)n1,IC50,Vero [1],23.7 µM (active)
same,CC50,Vero [2],> 25 µM (active)
c1ccc2c(N3CCCCC3)nc(N3CCOCC3)nc2c1,EC50,[3],1.88 µM (active)
Cc1ccc2c(c1)Oc1ccc(NC(=O)CCl)cc1C(=O)N2,EC50,BJ [4],2.99 µM (active)
same,EC50,BJ [5],2.88 µM (inconclusive)
same,CC50,[6],2.96 µM (active)
same,EC50,BJ [7],4.2 µM (inconclusive)
same,EC50,[8],6.28 µM (active)
same,IC50,[9],17.3 µM (active)
same,AC50,[10],10.1 µM (active)
same,AC50,[11],15.6 µM (active)
same,EC50,Protein RecA,4.53 µM (active)
CCCN(CCC)C1=CC(=[N+]2CCCC2)CC(C)(C)C1,IC50,[9],> 80 µM (inactive)
same,AC50,[10],2.02 µM (active)
COc1cccc(-c2nn(-c3ccccc3)cc2CN(C)C(C)c2ccncn2)c1 (stereo unspecified),EC50,[3],2.99 µM (active)
same,EC50,[12],6.68 µM (active)
CCOc1ccc2c(C)nc(NC3=NC(C)=CC(C)(C)N3)nc2c1,EC50,[3],1.68 µM (active)
same,AC50,[13],4.06 µM (active)
CCOc1ccccc1N(CC)C(=O)c1nn(C)c2c1CSc1ccccc1-2,EC50,[3],2.99 µM (active)
COC(=O)c1[nH]c2c(c1C)C(=O)CC(c1cccc(OC)c1)C2 (stereo unspecified),EC50,BJ [4],0.773 µM (active)
same,EC50,BJ [5],1.62 µM (active)
same,EC50,BJ [7],0.665 µM (active)
same,EC50,[8],0.619 µM (active)
same,IC50,[9],> 80 µM (inactive)
CC(=O)Nc1ccc(S(=O)(=O)N2CCSc3ccccc32)cc1,IC50,[9],> 80 µM (inactive)
CCC[C@H]1NC(=O)[C@H](C)N(C)C(=O)C(C)(C)C(=O)C(C)NC(=O)[C@H](Cc2ccc(OC)cc2)N(C)C(=O)[C@H](C(C)C)N(C)C(=O)CNC(=O)[C@H](CC(C)C)N(C)C(=O)CNC(=O)[C@H]([C@@H](C)CC)OC(=O)[C@H]1C (stereo partly specified) (cyclo(G[NMeL]G[NMeV][NMeY](Me)[X1][NMeA][X2])),IC50,[9],> 80 µM (inactive)
